In patent US12357598B2, “Treatment of neurodevelopmental disorders” (THE REGENTS OF THE UNIVERSITY OF CALIFORNIA, priority 2018, dated 2025):

Test system: ddY mice
Assay: Oxylipin analysis of plasma and brain regions of juvenile offspring after maternal glyphosate exposure
Format: in vivo, mouse
Conditions: juvenile offspring (P28), maternal 0.095% glyphosate
From the text: Collection of blood and brain samples and oxylipin analysis. Water or 0.095% glyphosate was given to pregnant mice from E5 to P21, as described above. The male offspring were separated from their mothers at weaning (P21). At juvenile (P28) stage, mice were deeply anesthetized with isoflurane and plasma was collected. Subsequently, brains were removed from the skulls. For Western blot analysis, brain regions such as prefrontal cortex (PFC), hippocampus, and striatum, were dissected from brain on ice. The samples were stored at −80° C. before assay. For oxylipin analysis, plasma was collected after isoflurane anesthesia at juvenile (P28) stage. Subsequently, PFC, hippocampus, and striatum were dissected from brain on ice, and the samples were stored at −80° C. before assay. Measurement of eicosanoids in the plasma and brain regions was performed at UC Davis using the previous method (4).

## O=C(O)CNCP(=O)(O)O [glyphosate]
plasma
  4,5-DiHDPE level: 1.527 ± 0.112 nmol/mL
  5(6)-EpETrE level: 24.279 ± 3.524 nmol/mL
  5,6-DiHETrE level: 0.417 ± 0.047 nmol/mL
  5-HEPE level: 8.117 ± 1.251 nmol/mL
  5-HETE level: 2.137 ± 0.335 nmol/mL
  5-oxo-ETE level: 20.987 ± 2.839 nmol/mL
  6-keto-PGF1a level: 0.252 ± 0.043 nmol/mL
  7(8)-EpDPE level: 195.343 ± 16.718 nmol/mL
  8(9)-EpETE level: 0.863 ± 0.138 nmol/mL
  8(9)-EpETrE alt level: 3.325 ± 0.409 nmol/mL
  8(9)-EpETrE level: 13.892 ± 2.938 nmol/mL
  8-HEPE level: 7.652 ± 0.970 nmol/mL
  8-HETE level: 7.349 ± 0.718 nmol/mL
  9(10)-EpOME level: 28.326 ± 4.243 nmol/mL
  9,10,13-TriHOME level: 5.220 ± 0.403 nmol/mL
  9,12,13-TriHOME level: 12.758 ± 1.096 nmol/mL
  9-HETE level: 0.056 ± 0.012 nmol/mL
  9-HODE level: 17.293 ± 2.482 nmol/mL
  10(11)-EpDPE level: 13.285 ± 1.234 nmol/mL
  11(12)-EpETE level: 2.579 ± 0.284 nmol/mL
  11(12)-EpETrE level: 6.360 ± 1.002 nmol/mL
  11,12-,15-TriHETrE level: 0.300 ± 0.072 nmol/mL
  11,12-DiHETrE level: 0.394 ± 0.045 nmol/mL
  11-HETE level: 1.949 ± 0.131 nmol/mL
  12(13)-EpOME level: 38.512 ± 4.378 nmol/mL
  12-HEPE level: 92.380 ± 15.026 nmol/mL
  12-HETE level: 90.069 ± 11.494 nmol/mL
  12-oxo-ETE level: 500.173 ± 99.031 nmol/mL
  13(14)-EpDPE level: 8.177 ± 0.873 nmol/mL
  13,14-DiHDPE level: 0.530 ± 0.056 nmol/mL
  13-HODE level: 66.733 ± 9.200 nmol/mL
  14(15)-EpETE level: 2.316 ± 0.258 nmol/mL
  14(15)-EpETrE level: 4.038 ± 0.637 nmol/mL
  14,15-DiHETrE level: 0.575 ± 0.051 nmol/mL
  15(16)-EpODE level: 14.493 ± 1.929 nmol/mL
  15(S)-HETrE level: 0.743 ± 0.167 nmol/mL
  15-HETE level: 1.985 ± 0.228 nmol/mL
  15-oxo-ETE level: 0.746 ± 0.105 nmol/mL
  16(17)-EpDPE level: 7.978 ± 0.799 nmol/mL
  16,17-DiHDPE level: 1.955 ± 0.201 nmol/mL
  17(18)-EpETE level: 4.845 ± 0.480 nmol/mL
  17-HDoHE level: 1386.287 ± 316.090 nmol/mL
  19(20)-EpDPE level: 19.092 ± 1.307 nmol/mL
  19,20-DiHDPE level: 6.507 ± 0.444 nmol/mL
  EKODE level: 12.405 ± 2.140 nmol/mL
  LTB3 level: 2.540 ± 0.525 nmol/mL
  PGD2 level: 0.138 ± 0.010 nmol/mL
  PGE2 level: 0.704 ± 0.010 nmol/mL
  PGF2a level: 0.462 ± 0.048 nmol/mL
  TXB2 level: 0.548 ± 0.069 nmol/mL
striatum
  4,5-DiHDPE level: 1.331 ± 0.320 pmol/g
  5(6)-EpETrE level: 2286.424 ± 589.971 pmol/g
  5,6-DiHETrE level: 0.655 ± 0.058 pmol/g
  5-HEPE level: 1.966 ± 0.253 pmol/g
  5-HETE level: 21.009 ± 1.874 pmol/g
  5-oxo-ETE level: 177.806 ± 23.342 pmol/g
  6-keto-PGF1a level: 70.151 ± 4.942 pmol/g
  7(8)-EpDPE level: 3684.482 ± 1464.079 pmol/g
  8(9)-EpETE level: 2.863 ± 1.693 pmol/g
  8(9)-EpETrE alt level: 256.271 ± 63.811 pmol/g
  8(9)-EpETrE level: 7513.6 ± 2879.9 pmol/g
  8-HEPE level: 1.198 ± 0.106 pmol/g
  8-HETE level: 7.063 ± 1.134 pmol/g
  9(10)-EpOME level: 64.909 ± 24.089 pmol/g
  9,10,13-TriHOME level: 35.219 ± 5.532 pmol/g
  9,12,13-TriHOME level: 59.110 ± 9.487 pmol/g
  9-HETE level: 2.001 ± 0.403 pmol/g
  9-HODE level: 42.211 ± 2.648 pmol/g
  10(11)-EpDPE level: 283.118 ± 111.688 pmol/g
  11(12)-EpETE level: 2.950 ± 0.707 pmol/g
  11(12)-EpETrE level: 1056.655 ± 383.807 pmol/g
  11,12-,15-TriHETrE level: 28.513 ± 2.432 pmol/g
  11,12-DiHETrE level: 1.461 ± 0.114 pmol/g
  11-HETE level: 263.508 ± 14.043 pmol/g
  12(13)-EpOME level: 75.548 ± 26.478 pmol/g
  12-HEPE level: 16.777 ± 3.707 pmol/g
  12-HETE level: 402.213 ± 68.023 pmol/g
  12-oxo-ETE level: 2383.322 ± 205.470 pmol/g
  13(14)-EpDPE level: 196.586 ± 72.402 pmol/g
  13,14-DiHDPE level: 0.849 ± 0.088 pmol/g
  13-HODE level: 61.551 ± 3.988 pmol/g
  14(15)-EpETE level: 2.368 ± 0.640 pmol/g
  14(15)-EpETrE level: 991.031 ± 327.438 pmol/g
  14,15-DiHETrE level: 2.399 ± 0.255 pmol/g
  15(16)-EpODE level: 0.837 ± 0.335 pmol/g
  15(S)-HETrE level: 13.863 ± 0.898 pmol/g
  15-HETE level: 312.592 ± 16.237 pmol/g
  15-oxo-ETE level: 15.203 ± 3.961 pmol/g
  16(17)-EpDPE level: 186.178 ± 73.985 pmol/g
  16,17-DiHDPE level: 1.427 ± 0.114 pmol/g
  17(18)-EpETE level: 7.282 ± 2.840 pmol/g
  17-HDoHE level: 7832.089 ± 1004.299 pmol/g
  19(20)-EpDPE level: 373.365 ± 128.458 pmol/g
  19,20-DiHDPE level: 8.734 ± 0.672 pmol/g
  EKODE level: 14.223 ± 1.256 pmol/g
  LTB3 level: 74.130 ± 28.033 pmol/g
  PGD2 level: 404.389 ± 30.557 pmol/g
  PGE2 level: 61.254 ± 3.057 pmol/g
  PGF2a level: 367.138 ± 24.248 pmol/g
  TXB2 level: 219.314 ± 15.121 pmol/g
